Results: PubChem BioAssay (NCI)
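Assay format: 96-well plates, 48-hour exposure. The concentration for full growth arrest is given as TGI.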

Legend:
Assay in all cases: growth of human tumour cells (NCI), 48 h
UACC-257 melanoma = system: UACC-257 melanoma
UACC-62 melanoma = system: UACC-62 melanoma
OVCAR-4 ovarian = system: OVCAR-4 ovarian
M19-MEL melanoma = system: M19-MEL melanoma
CAKI-1 renal = system: CAKI-1 renal
HCT-15 colon = system: HCT-15 colon
NCI-H226 lung = system: NCI-H226 lung
LOX IMVI melanoma = system: LOX IMVI melanoma
SK-MEL-5 melanoma = system: SK-MEL-5 melanoma
DLD-1 colon = system: DLD-1 colon
KM12 colon = system: KM12 colon
HOP-18 NSCLC = system: HOP-18 NSCLC
A549 NSCLC = system: A549 NSCLC
CCRF-CEM leukemia = system: CCRF-CEM leukemia
SF-268 CNS = system: SF-268 CNS
SNB-19 CNS = system: SNB-19 CNS
IGROV1 ovarian = system: IGROV1 ovarian
MOLT-4 leukemia = system: MOLT-4 leukemia
SN12C renal = system: SN12C renal
ACHN renal = system: ACHN renal
LXFL 529 NSCLC = system: LXFL 529 NSCLC
HOP-62 NSCLC = system: HOP-62 NSCLC
RXF-631 renal = system: RXF-631 renal
NCI-H460 lung = system: NCI-H460 lung
SNB-75 CNS = system: SNB-75 CNS
NCI-H23 lung = system: NCI-H23 lung
SK-OV-3 ovarian = system: SK-OV-3 ovarian
HOP-92 NSCLC = system: HOP-92 NSCLC
HCT-116 colon = system: HCT-116 colon
UO-31 renal = system: UO-31 renal
SW-620 colon = system: SW-620 colon
SK-MEL-28 melanoma = system: SK-MEL-28 melanoma
COLO 205 colon = system: COLO 205 colon
A498 renal = system: A498 renal
XF 498 CNS = system: XF 498 CNS
K-562 leukemia = system: K-562 leukemia
OVCAR-8 ovarian = system: OVCAR-8 ovarian
DMS 114 small cell lung = system: DMS 114 small cell lung
NCI-H522 lung = system: NCI-H522 lung
RXF 393 renal = system: RXF 393 renal
DMS 273 small cell lung = system: DMS 273 small cell lung
MALME-3M melanoma = system: MALME-3M melanoma
M14 melanoma = system: M14 melanoma
786-0 renal = system: 786-0 renal
HL-60(TB) leukemia = system: HL-60(TB) leukemia
SK-MEL-2 melanoma = system: SK-MEL-2 melanoma
RPMI-8226 leukemia = system: RPMI-8226 leukemia
KM20L2 colon = system: KM20L2 colon
OVCAR-3 ovarian = system: OVCAR-3 ovarian
TK-10 renal = system: TK-10 renal
U251 CNS = system: U251 CNS
HT29 colon = system: HT29 colon
EKVX NSCLC = system: EKVX NSCLC
SF-295 CNS = system: SF-295 CNS
MDA-N = system: MDA-N
SR leukemia = system: SR leukemia
MCF7 breast = system: MCF7 breast
T-47D breast = system: T-47D breast
NCI/ADR-RES ovarian = system: NCI/ADR-RES ovarian
HCC-2998 colon = system: HCC-2998 colon
MDA-MB-435 = system: MDA-MB-435
MDA-MB-231 breast = system: MDA-MB-231 breast
SNB-78 CNS = system: SNB-78 CNS
DU-145 prostate = system: DU-145 prostate
PC-3 prostate = system: PC-3 prostate
HS 578T breast = system: HS 578T breast
SF-539 CNS = system: SF-539 CNS
OVCAR-5 ovarian = system: OVCAR-5 ovarian
BT-549 breast = system: BT-549 breast

**Q.** How did the TGI (UACC-257 melanoma) turn out when COC(=O)C(=O)C(C(=O)C(=O)Nc1ccc([N+](=O)[O-])cc1)c1nc2ccccc2[nH]c1=O (centres undefined) was run?
**A.** Its TGI is over 100 µM.

**Q.** What about the TGI (UACC-62 melanoma) of the same molecule?
**A.** The TGI was over 100 µM.

**Q.** And the TGI (OVCAR-4 ovarian)?
**A.** The TGI was over 100 µM.

**Q.** And the TGI (M19-MEL melanoma)?
**A.** Its TGI is over 100 µM.

**Q.** What about the TGI (CAKI-1 renal) of the same molecule?
**A.** Its TGI is over 100 µM.

**Q.** What about the TGI (HCT-15 colon) of the same molecule?
**A.** The TGI was over 100 µM.

**Q.** What about the TGI (NCI-H226 lung) of the same molecule?
**A.** Its TGI is over 100 µM.

**Q.** And the TGI (LOX IMVI melanoma)?
**A.** Its TGI is over 100 µM.

**Q.** What about the TGI (SK-MEL-5 melanoma) of the same molecule?
**A.** Its TGI is over 100 µM.

**Q.** And the TGI (DLD-1 colon)?
**A.** The TGI was over 100 µM.

**Q.** And the TGI (KM12 colon)?
**A.** Its TGI is over 100 µM.

**Q.** What about the TGI (HOP-18 NSCLC) of the same molecule?
**A.** The TGI was over 100 µM.

**Q.** And the TGI (A549 NSCLC)?
**A.** The TGI was over 100 µM.

**Q.** What about the TGI (CCRF-CEM leukemia) of the same molecule?
**A.** Its TGI is over 100 µM.

**Q.** What about the TGI (SF-268 CNS) of the same molecule?
**A.** Its TGI is over 100 µM.

**Q.** What about the TGI (SNB-19 CNS) of the same molecule?
**A.** The TGI was over 100 µM.

**Q.** What about the TGI (IGROV1 ovarian) of the same molecule?
**A.** The TGI was over 100 µM.

**Q.** And the TGI (MOLT-4 leukemia)?
**A.** The TGI was over 100 µM.

**Q.** What about the TGI (SN12C renal) of the same molecule?
**A.** Its TGI is over 100 µM.

**Q.** And the TGI (ACHN renal)?
**A.** Its TGI is over 100 µM.

**Q.** What about the TGI (LXFL 529 NSCLC) of the same molecule?
**A.** The TGI was over 100 µM.

**Q.** And the TGI (HOP-62 NSCLC)?
**A.** The TGI was over 100 µM.

**Q.** And the TGI (RXF-631 renal)?
**A.** The TGI was over 100 µM.

**Q.** What about the TGI (NCI-H460 lung) of the same molecule?
**A.** The TGI was over 100 µM.

**Q.** What about the TGI (SNB-75 CNS) of the same molecule?
**A.** Its TGI is over 100 µM.

**Q.** And the TGI (NCI-H23 lung)?
**A.** The TGI was over 100 µM.

**Q.** What about the TGI (SK-OV-3 ovarian) of the same molecule?
**A.** The TGI was over 100 µM.

**Q.** What about the TGI (HOP-92 NSCLC) of the same molecule?
**A.** Its TGI is over 100 µM.

**Q.** What about the TGI (HCT-116 colon) of the same molecule?
**A.** The TGI was over 100 µM.

**Q.** What about the TGI (UO-31 renal) of the same molecule?
**A.** The TGI was over 100 µM.

**Q.** And the TGI (SW-620 colon)?
**A.** Its TGI is over 100 µM.

**Q.** And the TGI (SK-MEL-28 melanoma)?
**A.** The TGI was over 100 µM.

**Q.** And the TGI (COLO 205 colon)?
**A.** The TGI was over 100 µM.

**Q.** And the TGI (A498 renal)?
**A.** Its TGI is over 100 µM.

**Q.** And the TGI (XF 498 CNS)?
**A.** Its TGI is over 100 µM.

**Q.** And the TGI (K-562 leukemia)?
**A.** The TGI was over 100 µM.

**Q.** What about the TGI (OVCAR-8 ovarian) of the same molecule?
**A.** The TGI was over 100 µM.

**Q.** And the TGI (DMS 114 small cell lung)?
**A.** The TGI was over 100 µM.

**Q.** And the TGI (NCI-H522 lung)?
**A.** Its TGI is over 100 µM.

**Q.** And the TGI (RXF 393 renal)?
**A.** The TGI was over 100 µM.

**Q.** And the TGI (DMS 273 small cell lung)?
**A.** The TGI was over 100 µM.

**Q.** And the TGI (MALME-3M melanoma)?
**A.** The TGI was over 100 µM.

**Q.** And the TGI (M14 melanoma)?
**A.** The TGI was over 100 µM.

**Q.** What about the TGI (786-0 renal) of the same molecule?
**A.** Its TGI is over 100 µM.

**Q.** What about the TGI (HL-60(TB) leukemia) of the same molecule?
**A.** The TGI was over 100 µM.

**Q.** What about the TGI (SK-MEL-2 melanoma) of the same molecule?
**A.** Its TGI is over 100 µM.

**Q.** And the TGI (RPMI-8226 leukemia)?
**A.** Its TGI is over 100 µM.

**Q.** What about the TGI (KM20L2 colon) of the same molecule?
**A.** The TGI was over 100 µM.

**Q.** And the TGI (OVCAR-3 ovarian)?
**A.** Its TGI is over 100 µM.

**Q.** What about the TGI (TK-10 renal) of the same molecule?
**A.** Its TGI is over 100 µM.

**Q.** What about the TGI (U251 CNS) of the same molecule?
**A.** Its TGI is over 100 µM.

**Q.** And the TGI (HT29 colon)?
**A.** Its TGI is over 100 µM.

**Q.** Which results are given for Cc1nc2ccc(NCCN(C)C)c3c(=O)c4ccccc4n1c23?
**A.** TGI (UACC-257 melanoma): 17.6 µM; TGI (UACC-62 melanoma): 20.2 µM; TGI (OVCAR-4 ovarian): 6.82 µM; TGI (EKVX NSCLC): 14.2 µM; TGI (M19-MEL melanoma): 19.5 µM; TGI (CAKI-1 renal): 13.8 µM; TGI (HCT-15 colon): 6.22 µM; TGI (NCI-H226 lung): 8.69 µM; TGI (SF-295 CNS): 14.2 µM; TGI (LOX IMVI melanoma): 2.96 µM; TGI (MDA-N): 12.4 µM; TGI (SK-MEL-5 melanoma): 8.95 µM; TGI (SR leukemia): 10.6 µM; TGI (DLD-1 colon): 21.3 µM; TGI (KM12 colon): 13.1 µM; TGI (MCF7 breast): 23.3 µM; TGI (T-47D breast): 39.7 µM; TGI (HOP-18 NSCLC): 51.2 µM; TGI (NCI/ADR-RES ovarian): 6.83 µM; TGI (A549 NSCLC): 6.42 µM; TGI (CCRF-CEM leukemia): 47.5 µM; TGI (SF-268 CNS): 20.2 µM; TGI (SNB-19 CNS): 47.8 µM; TGI (IGROV1 ovarian): 16.6 µM; TGI (MOLT-4 leukemia): 22.2 µM; TGI (SN12C renal): 40.1 µM; TGI (HCC-2998 colon): 16.7 µM; TGI (ACHN renal): 22.3 µM; TGI (LXFL 529 NSCLC): 22.6 µM; TGI (HOP-62 NSCLC): 19.1 µM; TGI (RXF-631 renal): 15.8 µM; TGI (MDA-MB-435): 16.1 µM; TGI (NCI-H460 lung): 10.8 µM; TGI (SNB-75 CNS): 17.8 µM; TGI (NCI-H23 lung): 9.94 µM; TGI (SK-OV-3 ovarian): 36.7 µM; TGI (HOP-92 NSCLC): 14.2 µM; TGI (MDA-MB-231 breast): 5.8 µM; TGI (HCT-116 colon): 13.8 µM; TGI (UO-31 renal): 11.1 µM; TGI (SW-620 colon): 9.15 µM; TGI (SK-MEL-28 melanoma): 21 µM; TGI (SNB-78 CNS): 23.9 µM; TGI (DU-145 prostate): 6.87 µM; TGI (COLO 205 colon): 11.8 µM; TGI (A498 renal): 12.1 µM; TGI (K-562 leukemia): > 54.8 µM; TGI (OVCAR-8 ovarian): 10.1 µM; TGI (DMS 114 small cell lung): 21.5 µM; TGI (NCI-H522 lung): 9.91 µM; TGI (RXF 393 renal): 22.9 µM; TGI (PC-3 prostate): 8.8 µM; TGI (MALME-3M melanoma): 18.5 µM; TGI (M14 melanoma): 16.4 µM; TGI (786-0 renal): 15.7 µM; TGI (HL-60(TB) leukemia): > 47.5 µM; TGI (HS 578T breast): 9.15 µM; TGI (SK-MEL-2 melanoma): 18.8 µM; TGI (RPMI-8226 leukemia): 26.2 µM; TGI (SF-539 CNS): 16 µM; TGI (KM20L2 colon): 16.9 µM; TGI (OVCAR-3 ovarian): 35.6 µM; TGI (TK-10 renal): 38.5 µM; TGI (OVCAR-5 ovarian): 21 µM; TGI (BT-549 breast): 23.6 µM; TGI (U251 CNS): 16.2 µM; TGI (HT29 colon): 10.8 µM
